Test results as given in ChEMBL document CHEMBL1862790, “Optimisation of fenarimol series for the treatment of Chagas disease”.
pIC50: −log10 of the molar value. Values joined by “and” are separate entries in the source; they are usually repeats but may differ in a detail not shown here. Equal values may be shown once.

Columns and labels:
L6 = assay: (§1) DNDI: Cytotoxicity against L-6 rat myoblasts from skeletal muscle cells; settings: L6 rat skeletal muscle myoblast cells
[1] = as §1; settings: L6 rat skeletal muscle myoblast cells
Trypanosoma cruzi [2] = assay: microbe, parasite or virus in culture; type: functional, organism-based, Tulahuen LacZ, Clone C4
Trypanosoma cruzi [3] = assay: microbe, parasite or virus in culture; type: functional, Tulahuen LacZ, Clone C4
[4] = Trypanosoma cruzi, Tulahuen LacZ, Clone C4

pIC50 (Trypanosoma cruzi [2])	pIC50 (Trypanosoma cruzi [2]; [4])	IC90 (Trypanosoma cruzi [3]; [4])	IC90 (Trypanosoma cruzi [3])	Compound	pIC50 (L6)	pIC50 [1]	pIC50 ([1]; IC50)
	7.63	68.5 nM		CC(C)(C)C(=O)N1CCN(C(c2cccnc2)c2ccc(C(F)(F)F)cc2F)CC1 (stereo not given)	4.14		
8.59 and 8.22		7.5 nM	8 nM	CS(=O)(=O)c1ccc(N2CCC(NC(c3cccnc3)c3ccc(Cl)cc3F)CC2)cc1 (stereo not given)	4.57		4.30
8.10 and 7.78		24 nM	31.5 nM	Fc1cc(Cl)ccc1C(NC1CCN(c2ccc(C(F)(F)F)cc2F)CC1)c1cccnc1 (stereo not given)	4.28		4.29
8.18	8.15	17.5 nM	16 nM	FC(F)(F)c1ccc(N2CCC(NC(c3ccc(Cl)cc3)c3cccnc3)CC2)cn1 (stereo not given)	4.26		4.40
	7.78	33 nM		Cc1noc(N2CCN(C(c3cccnc3)c3ccc(C(F)(F)F)cc3F)CC2)n1 (stereo not given)	4.29		
8.07	7.78	24 nM	37 nM	O=C(NC1CCN(C(c2ccc(C(F)(F)F)cc2)c2cccnc2)CC1)c1c(F)cccc1F (stereo not given)	< 4.00		4.25
7.90	7.68	37 nM	34 nM	N#Cc1cccc(N2CCC(NC(c3cccnc3)c3ccc(Cl)cc3F)CC2)c1 (stereo not given)	4.49		4.26
7.96 and 7.98	8.02	29.5 nM	37.5 nM and 34 nM	Fc1cc(Cl)ccc1C(NC1CCN(c2ccc(C(F)(F)F)cc2)CC1)c1cccnc1 (stereo not given)	4.28		4.25
	7.56	82.5 nM		CS(=O)(=O)N1CCN(C(c2cccnc2)c2ccc(C(F)(F)F)cc2F)CC1 (stereo not given)	4.11		
8.26 and 8.72		12.5 nM	9.52 nM	N#Cc1ccc(C(O)(c2ccc(C(F)(F)F)cc2)c2cccnc2)c(F)c1 (stereo not given)	4.25		4.11
7.72 and 7.34		48 nM	90 nM	FC(F)(F)c1ccc(N2CCC(NC(c3ccc(Cl)cc3)c3cccnc3)CC2)nc1 (stereo not given)	4.20		4.26

Second part, the molecule before the results:

Compound	pIC50 (Trypanosoma cruzi [2])	pIC50 (Trypanosoma cruzi [2]; [4])	IC90 (Trypanosoma cruzi [3]; [4])	IC90 (Trypanosoma cruzi [3])	pIC50 (L6)	pIC50 [1]	pIC50 ([1]; IC50)
OC(c1ccc(Cl)cc1)(c1cccnc1)c1ccccc1Cl (stereo not given)	6.68	6.57			4.21	4.22	
CC(C)(C)C(=O)N1CCN(C(c2cccnc2)c2ccc(Cl)cc2F)CC1 (stereo not given)		7.72	88 nM		4.22		
CC(C)CCON=C(Cc1cccnc1)c1ccc(Cl)cc1Cl					4.23		4.21
CC(C)Oc1ccc(C(O)(c2ccc(Cl)cc2)c2cccnc2)cc1 (stereo not given)	8.09 and 8.70			18 nM and 6 nM	4.25	4.28	
OC(c1ccc(Cl)cc1)(c1cccnc1)c1cccs1 (stereo not given)	7.77	7.89	108 nM	99 nM	4.17		< 4.00
CON=C(Cc1cccnc1)c1ccc(Cl)cc1Cl	6.68 and 6.33 and 6.53				4.09		< 4.00
Cc1ccc(C(O)(c2ccc(Cl)cc2)c2cncnc2)cc1 (stereo not given)	7.17 and 7.62		158 nM	310 nM	4.17		4.10
